≈ marks a conversion by molar mass, not a printed value. Entries after “also recorded” stand apart in the source; their conditions may differ.
How the values were obtained:
[1] = system: L. donovani strain MHOM/IN/54LRC-L.51 promastigotes; test: Effect on pathogens in vitro: promastigote culture, 96 hours, counting chamber (Example 41); type: cell-based; conditions: 96 hours of incubation, 26° C., mean and SD of 3 experiments; for IC50: Leishmania donovani
Protocol: Several compounds of the invention were tested against L. donovani strain MHOM/IN/54LRC-L.51, isolated from a patient with visceral leishmaniasis. Before use for experiments, the strain was passed through Balb/c mice by intravenous injection.
Promastigotes were cultured in vitro in a mixed medium consisting of one part of HOSMEM and one part of RPMI-1640 (Gibco 041-02400) supplemented with 10% heat-inactivated fetal bovine serum (Gibco 011-06290) at 26° C. Cultures were maintained by seeding 5×10^6 promastigotes from 4-day-old cultures into 10 ml fresh medium. The promastigotes were cultured in 24-well-multiplates. After 96 hours of incubation in control or drug-containing media, the number of promastigotes was determined in a Neubauer counting chamber. The 50% inhibitory concentration was calculated graphically. The data is representative of the mean and SD values of 3 different experiments.

[2] = system: three strains of Leishmania (L. donovani MHOM/IN/54LRC-L.51; L. donovani MHOM/IN/80/DDS and L. infantum MHOM/ES/86/STI-172); test: Effect on pathogens in vivo: parasite burden in liver and spleen of infected Balb/c mice (Example 42)
Protocol: Several compounds of the invention were tested against three strains of Leishmania (L. donovani MHOM/IN/54LRC-L.51; L. donovani MHOM/IN/80/DDS and L. infantum MHOM/ES/86/STI-172). All strains were isolated from patients with visceral leishmaniasis. Before use for experiments, the strains were passed through Balb/c mice by intravenous injection.
Balb/c mice were infected by intravenous injection of a mixture of 10^7 promastigotes from stationary growth phase and 10^7 amastigotes which were isolated from the liver or spleen of leishmania-infected mice. Oral treatment with the compounds of the invention was initiated on day 7, at which time the mean parasitic burden was 100 to 200×10^6 amastigotes per liver, 1 to 2×10^6 per spleen and 3 to 6 amastigotes per microscopic field of 100 hematopoietic cells in bone marrow.
Parasite burden in spleen and liver were determined in GIEMSA's stained impression smears from cut sections by counting the number of amastigotes per 1000 spleen or liver nuclei. The total number of amastigotes per organ was calculated according to Stauber et al. (J. Protozool. 5:269-273 (1958)). Parasite suppression (parasite burden of drug treated mice to parasite burden of untreated mice) and parasite killing (parasite burden at the end of treatment to parasite burden at the start of treatment) were calculated according to Baumann et al. (Antimicrob. Agents Chemother. 35:1403-1407 (1991)) for all strains on day 14, for the strain LRC-L.51 in addition on days 21, 25 and 35 post-infectionem. The parasite burden in the bone marrow was examined on days 7 and 35 post-infectionem (strain LRC-L.51).
Table V summarizes the in vivo treatment results of several compounds of the invention in the liver and the spleen of treated mice. […] However, it is clear from the Table that the compounds of the invention produced much better results.

L. donovani [3] = test: Effect of leishmaniasis drugs on the number of pathogens in liver and spleen of rats infected with L. donovani (Examples 39, 40); type: in vivo; conditions: for Pathogens per spleen (in millions): 3 week period of therapy; for Relative effectiveness (pathogens per spleen after Pentostam therapy divided by pathogens/spleen after addition of test substance): procedure as in example 39 (orally 5 × 20 mg/kg/week for 3 weeks)
Leishmania = test: Four-week treatment period of Leishmania-infected mice (Example 43); type: in vivo
Text: In a further experiment, hexadecylphosphocholine was investigated in more detail.

L. donovani [4] = test: Effect of leishmaniasis drugs on the number of pathogens in liver and spleen of rats infected with L. donovani (Examples 39, 40); type: in vivo; conditions: for Relative effectiveness (pathogens per liver after Pentostam therapy divided by pathogens/liver after addition of test substance) / Pathogens per liver (in millions): orally 5 × 20 mg/kg/week for 3 weeks; for Pathogens per liver (in millions): rats infected with L. donovani, microscopic analysis
Protocol: Effect of various leishmaniasis drugs on the presence of pathogens in the liver of experimental animals (rats) infected with L. donovani.
The compounds according to the present invention and Et18OCH3 were administered orally while Pentostam was administered intravenously.
The number of pathogens per liver was determined by microscopic analysis.
The experimental procedure was as described in example 39.

[5] = in vivo, sc; cited from earlier work
[6] = procedure as in example 39 (orally 5 × 20 mg/kg/week)

Compound | IC50 Value [1] | IC50 [1] | Parasites (× 10^6) Liver ([2]; oral treatment, dose 20 mg/kg) | Parasites (× 10^6) Spleen ([2]; oral treatment, dose 20 mg/kg) | Pathogens per spleen (in millions) (L. donovani [3]; [6]) | Relative effectiveness (pathogens per spleen after Pentostam therapy divided by pathogens/spleen after addition of test substance) (L. donovani [3]) | Pathogens per liver (in millions) (L. donovani [4]) | further results
octadecylphosphoethanol-(N-methyl)piperidine | 4.90 ± 0.50 µg/mL | – | 65 × 10^6 | 0.35 × 10^6 | – | – | – | –
CCCCCCCCCCCCCCCCCCOP(=O)([O-])OCC[N+]1(C)CCCC1 [Example 19, Octadecylphospho-(N-methyl)-pyrrolidino-ethyl ester] | 3.59 ± 0.19 µg/mL (≈ 7.78 µM) | – | 22 × 10^6 | 0.035 × 10^6 | – | – | – | –
O.O.O.O.O.O.O.O.O.O=C([O-])[C@@H]1[O][Sb]2([O-])([O][Sb]34([OH])[O][C@H]([C@H](O)CO)[C@H]([O]3)[C@H](C(=O)[O-])[O]4)[O][C@H]([C@H](O)CO)[C@@H]1[O]2.[Na+].[Na+].[Na+] [Pentostam, sodium stibogluconate, reference compound] | – | – | – | – | – | – | – | Pathogens per spleen (in millions) (L. donovani [3]; procedure as in example 39 (Pentostam iv. 5 × 120 mg/kg/week), 120 mg/kg): weak effect; also recorded: extremely low effectiveness; Parasites (× 10^6) Liver ([2]; Pentostam, dose 120 mg/kg): significantly reduced the parasite burden; Parasites (× 10^6) Spleen ([2]; Pentostam, dose 120 mg/kg): significantly reduced the parasite burden; Suppression of parasite growth in the spleen compared to control mice (Leishmania; spleen, Pentostam): only a moderate suppression of parasite growth
CCCCCCCC/C=C\CCCCCCCCOP(=O)([O-])OCC[N+](C)(C)CC [Example 7, Oleylphospho-(N.N-dimethyl-N-ethyl)ethanolamine] | – | – | – | – | 0.03 millions | 210.0 | 4.7 millions | Relative effectiveness (pathogens per liver after Pentostam therapy divided by pathogens/liver after addition of test substance) (L. donovani [4]; 20 mg/kg): 0.7; Relative effectiveness (pathogens per liver after Pentostam therapy divided by pathogens/liver after addition of test substance) (L. donovani [4]; listed as olely-phospho-(N.N-dimethyl-N-ethyl)ethanolamine, 20 mg/kg): comparable effect to Pentostam
CCCCCCCCCCCCCCCCCCOP(=O)([O-])OCC[N+](C)(C)C [Example 2, Octadecylphosphocholine] | – | 0.8 ± 0.2 µg/mL (≈ 1.84 µM) | 0.07 × 10^6 | 0.015 × 10^6 | 0.01 millions | 630.0 | 0.1 millions | Relative effectiveness (pathogens per liver after Pentostam therapy divided by pathogens/liver after addition of test substance) (L. donovani [4]): 32.0
CCCCCCCCCCCCCCCCCCOCC(COP(=O)([O-])OCC[N+](C)(C)C)OC (racemic) [Et18OCH3, 1-octadecyl-2-methyl-rac-glycero-3-phosphocholine, reference compound] | – | – | – | – | 6.5 millions | 0.9 | 424.7 millions | Relative effectiveness (pathogens per liver after Pentostam therapy divided by pathogens/liver after addition of test substance) (L. donovani [4]): 0.007

Continued, in another order:

IC50 Value [1] | IC50 [1] | Compound | Parasites (× 10^6) Liver ([2]; oral treatment, dose 20 mg/kg) | Parasites (× 10^6) Spleen ([2]; oral treatment, dose 20 mg/kg) | Pathogens per spleen (in millions) (L. donovani [3]; [6]) | Relative effectiveness (pathogens per spleen after Pentostam therapy divided by pathogens/spleen after addition of test substance) (L. donovani [3]) | Pathogens per liver (in millions) (L. donovani [4]) | further results
2.80 ± 0.50 µg/mL (≈ 6.06 µM) | – | CCCCCCCC/C=C\CCCCCCCCOP(=O)([O-])OCC[N+](C)(CC)CC [Example 20, Oleylphospho-(N.N-diethyl-N-methyl)-ethanolamine] | 55 × 10^6 | 3.8 × 10^6 | – | – | – | –
– | 2.07 ± 0.23 µg/mL (≈ 5.08 µM) | CCCCCCCCCCCCCCCCOP(=O)([O-])OCC[N+](C)(C)C [Example 1, Hexadecylphosphocholine] | 0.07 × 10^6 | 0.008 × 10^6 | 0.01 millions | – | 0.1 millions | Parasites microscopically detectable (L. donovani [3]; several additional experiments (Example 40, spleen), single oral dose of 200 mg): no longer microscopically detectable; Toxicity for the experimental animals, in particular for macrophages [5]: highly toxic; Spleen Weight (Leishmania; Leishmania-infected mice, 10 mg (oral)): 150 mg; Reduction of parasites in the spleen (Leishmania; spleen, oral treatment with 20 mg/kg): more than three log rank reduction of parasites; Parasites microscopically detectable in the liver and in the spleen (L. donovani [4]; additional experiments, single oral dose of 200 mg): no longer microscopically detectable
0.66 ± 0.24 µg/mL (≈ 1.39 µM) | – | CCCCCCCC/C=C\CCCCCCCCOP(=O)([O-])OCC[N+](CC)(CC)CC [cis-9-octadecenylphospho-(N,N-diethyl,N-ethylamino)ethanol] | 6 × 10^6 | 0.03 × 10^6 | – | – | – | –
– | 0.41 ± 0.14 µg/mL (≈ 0.946 µM) | CCCCCCCC/C=C/CCCCCCCCOP(=O)([O-])OCC[N+](C)(C)C [Example 4, Elaidylphosphocholine] | 28 × 10^6 | 0.02 × 10^6 | – | – | – | –
